Results as given in ChEMBL document CHEMBL1629634, “Postantibiotic effect of tigecycline against 14 gram-positive organisms” (Antimicrob Agents Chemother, 2009).
≈ marks a conversion by molar mass, not a printed value.

Assays:
Type in all cases: functional
Enterococcus faecalis [1] = experiment: Antibacterial activity against vancomycin-resistant Enterococcus faecalis assessed as post antibiotic effect at 10 times MIC concentration incubated for 1 hr measured after 1:1000 dilution by viable plate count method
Acinetobacter baumannii [2] = experiment: Antibacterial activity against multidrug-resistant Acinetobacter baumannii producing OXA-24 and OXA-51 beta-lactamases assessed as post-antibiotic sub-MIC effect at 0.4 times MIC concentration pretreated with 10 times MIC concentration for 1 hr followed by 1:1000 dilution by viable plate count method
Acinetobacter baumannii [3] = experiment: Antibacterial activity against multidrug-resistant Acinetobacter baumannii producing OXA-24 and OXA-51 beta-lactamases assessed as sub-MIC effect at 0.4 times MIC concentration incubated for 1 hr by viable plate count method
Enterococcus faecalis [4] = experiment: Antibacterial activity against vancomycin-sensitive Enterococcus faecalis assessed as sub-MIC effect at 0.4 times MIC concentration incubated for 1 hr by viable plate count method
Enterococcus faecalis [5] = experiment: Antibacterial activity against vancomycin-resistant Enterococcus faecalis by macrodilution method
Haemophilus influenzae = experiment: Antibacterial activity against beta-lactamase deficient and ampicillin-resistant Haemophilus influenzae assessed as sub-MIC effect at 0.2 times MIC concentration incubated for 1 hr by viable plate count method
Staphylococcus aureus [6] = experiment: Antibacterial activity against vancomycin-intermediate methicillin-resistant Staphylococcus aureus by macrodilution method
Streptococcus pneumoniae [7] = experiment: Antibacterial activity against penicillin-susceptible Streptococcus pneumoniae assessed as sub-MIC effect at 0.3 times MIC concentration incubated for 1 hr by viable plate count method
Acinetobacter baumannii [8] = experiment: Antibacterial activity against multidrug-resistant Acinetobacter baumannii producing OXA-24 and OXA-51 beta-lactamases assessed as post antibiotic effect at 10 times MIC concentration incubated for 1 hr measured after 1:1000 dilution by viable plate count method
Streptococcus pneumoniae [9] = experiment: Antibacterial activity against penicillin-intermediate Streptococcus pneumoniae assessed as post antibiotic effect at 10 times MIC concentration incubated for 1 hr measured after 1:1000 dilution by viable plate count method
Streptococcus pneumoniae [10] = experiment: Antibacterial activity against penicillin-resistant Streptococcus pneumoniae assessed as post-antibiotic sub-MIC effect at 0.2 times MIC concentration pretreated with 10 times MIC concentration for 1 hr followed by 1:1000 dilution by viable plate count method
Staphylococcus aureus [11] = experiment: Antibacterial activity against vancomycin-sensitive methicillin-resistant Staphylococcus aureus assessed as post-antibiotic sub-MIC effect at 0.4 times MIC concentration pretreated with 6 times MIC concentration for 1 hr followed by 1:1000 dilution by viable plate count method

Compound: CN(C)c1cc(NC(=O)CNC(C)(C)C)c(O)c2c1C[C@H]1C[C@H]3[C@H](N(C)C)C(O)=C(C(N)=O)C(=O)[C@@]3(O)C(O)=C1C2=O [TIGECYCLINE]
- PAE (Enterococcus faecalis [1]): 6 h
- PAE (Acinetobacter baumannii [2]): 3.8 h
- PAE (Acinetobacter baumannii [3]): 1.9 h
- PAE (Enterococcus faecalis [4]): 1.8 h
- MIC (Enterococcus faecalis [5]): 0.06 µg/mL (≈ 0.102 µM)
- PAE (Haemophilus influenzae): 0.8 h
- MIC (Staphylococcus aureus [6]): 0.12 µg/mL (≈ 0.205 µM)
- PAE (Streptococcus pneumoniae [7]): 0 h
- PAE (Acinetobacter baumannii [8]): 1.3 h
- PAE (Streptococcus pneumoniae [9]): 1.9 h
- PAE (Streptococcus pneumoniae [10]): 6.7 h
- PAE (Staphylococcus aureus [11]): 6.9 h
